How the values were obtained:
Assay in all cases: In vitro anticancer activity test (MTT cell proliferation assay)
Type in all cases: cell-based
[1] = tested on: human breast cancer cell MFM223; details: MFM-223
Procedure: (§1) The anticancer activity of the compounds was tested using an in vitro cancer cell tests. The specific test method is as follows: • 1. Cell recovery and culture method: the cryovial was taken out from the liquid nitrogen container firstly, soaked directly in 37°C warm water, and shaked from time to time to let it thaw as soon as possible. Then, the cryovial was transferred to a clean bench, and the lid was open. The cell suspension was taken into a centrifuge tube using a rubber-tipped dropper and more than 10 times the culture medium was added, mixed well, and centrifuged at 50g for 5 minutes. Then, the supernatant was discarded, complete culture medium containing 10% fetal bovine serum was added to resuspend the cells, the cells was counted, the cell density was adjusted, and then inoculated into a culture bottle. The culture bottle was placed in a cell culture incubator at 5% CO2 and 37°C. The complete culture medium was replaced once the next day and the culture was continued. • 2. Cell passaging method: adherent cells in the logarithmic growth phase were placed in a clean bench, the original culture medium was discarded, and washed three times with 1×PBS. An appropriate amount of 0.25% trypsin digestion solution was added to moisten the cells, and then the trypsin solution was aspirated. The cells were placed in a cell culture incubator at 5% CO2 and 37°C for digestion for a suitable time, and observed under a microscope. When 90% of the cells become round, the cells were moved immediately to the clean bench and complete culture medium was added to terminate digestion. Then, the cells were dislodged by pipetting up and down with a rubber-tipped dropper to single cells. The cells were counted, and the cell density was adjusted. The cells were inoculated into a suitable culture bottle or dish, added enough complete culture medium, and placed in a cell culture incubator at 5% CO2 and 37°C for static culture. For suspension cells in the logarithmic phase, the original culture medium was directly centrifuged at 50g for 5 minutes, the supernatant was discarded, and the cells were washed once with PBS and centrifuged. After discarding the supernatant, the complete culture medium was added and the cells were dispersed using a rubber-tipped dropper. The cells are counted, and the cell density was adjusted. The cells were inoculated into appropriate culture bottles or culture dishes, and sufficient complete culture medium was added, and the cells were cultured in a cell culture incubator at 5% CO2 and 37°C. • 3. Cell proliferation assay: cells in good state in logarithmic phase were taken and appropriate amount of the cells was inoculated into 96-well plates according to the cell passage treatment method, with each well containing 180 µL complete medium. After the cells growth was recovered and the number of cells in each well is 5000±500, a drug was added for treatment. After drug treatment during the experimental time, MTT solution with a final concentration of 0.5 mg/mL was added to each well, and placed in a cell culture incubator at 5% CO2 and 37°C to allow a fully reaction of MTT with cells. After 4 hours, the solution in the 96-well plate was discarded, 100 µL of DMSO was added, and shaked to dissolve the formazan precipitated at the bottom of the plate, and the absorbance value of samples was detected at a wavelength of 570 nm using a microplate reader. Calculation method of cell viability rate: Viability rate = A sample group÷A control group × 100% [formula] • 4. Cell photography step: cells in good state in logarithmic phase were taken and an appropriate amount of cells was inoculated into 96-well plates according to the cell passage treatment method, with each well containing 180 µL complete medium. After the cells growth was recovered and the number of cells in each well is 5000 ± 500, a drug was added for treatment. […]

[2] = tested on: human Burkitt's lymphoma cell Raji
Procedure: as §1

human glioma cell SNB-19 = tested on: human glioma cell SNB-19
Procedure: as §1

[3] = tested on: pancreatic cancer cell PNAC-1
Procedure: as §1

[4] = tested on: human colon cancer cell HCT 116
Procedure: as §1

Hela = details: Homo sapiens
Procedure: as §1

[5] = tested on: human malignant melanoma cell A375; details: A-375
Procedure: as §1

[6] = tested on: human non-small cell lung cancer cell A549
Procedure: as §1

[7] = tested on: human liver cancer cell HepG2
Procedure: as §1

[8] = tested on: human osteosarcoma cell U2-OS; details: U2OS
Procedure: as §1

[9] = tested on: human gastric cancer cell MGC-803
Procedure: as §1

[10] = tested on: human prostate cancer cell PC-3
Procedure: as §1

Structure (SMILES) | IC50 [1] [µM] | IC50 [2] [µM] | IC50 (human glioma cell SNB-19) [µM] | IC50 [3] [µM] | IC50 [4] [µM] | IC50 (Hela) [µM] | IC50 [5] [µM] | IC50 [6] [µM] | IC50 [7] [µM] | IC50 [8] [µM] | IC50 [9] [µM] | IC50 [10] [µM] | inhibition at 40 µM (Hela; average proliferation inhibition rate at the dosage of 40 µM) [%]
O=C(O)c1cn(C2CC2)c2cc(N3CCNCC3)c(F)cc2c1=O [Ciprofloxacin] | > 100 | > 100 | > 100 | > 100 | > 100 | > 100 | > 100 | > 100 | > 100 | > 100 | > 100 | > 100 | 
O=C(O)c1cn(C2CC2)c2c(Cl)c(-c3ccc(S(=O)(=O)NCCCC(F)(F)F)nc3)c(F)cc2c1=O [Example 29, 8-chloro-1-cyclopropyl-6-fluoro-4-oxo-7-(6-(N-(4,4,4-trifluorobutyl)sulfamoyl)pyridin-3-yl)-1,4-dihydroquinolin-3-carboxylic acid] | 1 to 10 | 1 to 10 | 1 to 10 | 1 to 10 | 1 to 10 | 1 to 10 | 1 to 10 | 1 to 10 | 1 to 10 | 1 to 10 | 1 to 10 | 1 to 10 | ≥ 50
CCN(CC)CCNC(=O)c1c(C)[nH]c(/C=C2\C(=O)Nc3ccc(F)cc32)c1C [Sunitinib] | 10.2 ± 3.8 | 20.3 ± 2 | 6.5 ± 1.2 | 22.4 ± 5.2 | 20.7 ± 4.6 | 12 ± 2 | 19.2 ± 4.6 | 12.9 ± 10.2 | 9.6 ± 2.1 | 4.7 ± 1.1 | 17.5 ± 2.4 | 14.7 ± 6.6 | 

Source: patent EP4644391A1, “NOVEL PHENYLQUINOLONE COMPOUND HAVING ANTIBACTERIAL AND ANTICANCER FUNCTIONS, AND PREPARATION THEREOF” (Alphamol Science Ltd (Shanghai), priority 2022, dated 2024)
